Assay results as given in publication PMC9889419 (Pharmacological Reports, 2022).
pIC50, pKi: −log10 of the molar value. Where a name gives a salt, the structure may show the parent alone.

What was measured:
Experiment in all cases: Radioligand binding
5-HT1A = biological target: T1, 5-HT1A (Homo sapiens, UniProt P08908)
T1 sequence (P08908 1-422): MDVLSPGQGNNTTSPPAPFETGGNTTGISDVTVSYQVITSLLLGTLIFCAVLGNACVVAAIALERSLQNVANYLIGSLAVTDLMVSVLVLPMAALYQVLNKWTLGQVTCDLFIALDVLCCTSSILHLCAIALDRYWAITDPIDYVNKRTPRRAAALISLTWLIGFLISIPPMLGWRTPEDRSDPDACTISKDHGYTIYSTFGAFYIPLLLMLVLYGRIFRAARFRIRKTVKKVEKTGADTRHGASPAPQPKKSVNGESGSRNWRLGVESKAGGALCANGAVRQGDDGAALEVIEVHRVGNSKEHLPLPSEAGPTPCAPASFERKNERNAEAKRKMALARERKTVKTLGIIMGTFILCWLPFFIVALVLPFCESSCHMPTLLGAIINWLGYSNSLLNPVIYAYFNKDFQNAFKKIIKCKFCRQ
Method: (§1) Radioligand binding. Radioligand binding assays were performed at Eurofins CEREP (France). The results are expressed as a percent of control specific binding (measured specific binding*100/control specific binding) and as a percent inhibition of control specific binding (100-(measured specific binding*100)/control specific binding) obtained in the presence of the test compounds. The IC50 values (concentration causing a half-maximal inhibition of control specific binding) and Hill coefficients (nH) were determined by non-linear regression analysis of the competition curves generated with mean replicate values using Hill equation curve fitting (Y = D + [A-D]/[1 + (C/C50)^nH], where Y = specific binding, A = left asymptote of the curve, D = right asymptote of the curve, C = compound concentration, C50 = IC50, and nH = slope factor). This analysis was performed using software developed at Cerep (Hill software) and validated by comparison with data generated by the commercial software SigmaPlot® 4.0 for Windows® (© 1997 by SPSS Inc.). The inhibition constants (Ki) were calculated using the Cheng Prusoff equation (Ki = IC50/[1 + L/KD], where L = concentration of radioligand in the assay, and KD = affinity of the radioligand for the receptor). A scatchard plot is used to determine the Kd.

κ (KOP) = κ (KOP) (Rattus norvegicus, UniProt P34975)
Method: as §1

5-HT2B = 5-HT2B (Homo sapiens, UniProt P41595)
Method: as §1

D4.4 = biological target: T2, D4.4 (Homo sapiens, UniProt P21917)
T2 sequence (P21917 1-419): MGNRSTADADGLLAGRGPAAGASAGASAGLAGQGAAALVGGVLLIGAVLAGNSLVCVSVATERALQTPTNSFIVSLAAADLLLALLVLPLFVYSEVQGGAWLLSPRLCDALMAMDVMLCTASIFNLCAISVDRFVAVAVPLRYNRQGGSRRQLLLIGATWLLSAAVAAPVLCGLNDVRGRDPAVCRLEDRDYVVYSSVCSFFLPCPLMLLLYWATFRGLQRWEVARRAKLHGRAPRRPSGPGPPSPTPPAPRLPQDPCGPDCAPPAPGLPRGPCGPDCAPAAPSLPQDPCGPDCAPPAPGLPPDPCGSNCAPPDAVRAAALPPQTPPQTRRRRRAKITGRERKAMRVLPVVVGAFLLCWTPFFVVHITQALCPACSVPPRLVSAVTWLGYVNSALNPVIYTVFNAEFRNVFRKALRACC
Method: as §1

D3 = D3 (Homo sapiens, UniProt P35462)
Method: as §1

M1 = biological target: T3, M1 (Homo sapiens, UniProt P11229)
T3 sequence (P11229 1-460): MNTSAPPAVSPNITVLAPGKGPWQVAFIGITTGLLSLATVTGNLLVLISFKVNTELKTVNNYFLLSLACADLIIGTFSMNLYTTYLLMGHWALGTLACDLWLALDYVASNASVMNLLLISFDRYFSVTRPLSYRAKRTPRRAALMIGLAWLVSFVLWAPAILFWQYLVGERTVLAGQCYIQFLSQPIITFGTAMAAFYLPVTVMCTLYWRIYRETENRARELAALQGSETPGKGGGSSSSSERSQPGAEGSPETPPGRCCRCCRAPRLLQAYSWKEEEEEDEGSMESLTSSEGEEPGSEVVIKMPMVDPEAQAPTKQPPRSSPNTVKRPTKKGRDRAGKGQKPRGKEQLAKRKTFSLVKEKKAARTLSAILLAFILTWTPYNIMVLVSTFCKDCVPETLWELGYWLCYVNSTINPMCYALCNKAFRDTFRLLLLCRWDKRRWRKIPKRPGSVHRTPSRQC
Method: as §1

dopamine transporter = dopamine transporter (Homo sapiens, UniProt Q01959)
Method: as §1

M4 = biological target: T4, M4 (Homo sapiens, UniProt P08173)
T4 sequence (P08173 1-479): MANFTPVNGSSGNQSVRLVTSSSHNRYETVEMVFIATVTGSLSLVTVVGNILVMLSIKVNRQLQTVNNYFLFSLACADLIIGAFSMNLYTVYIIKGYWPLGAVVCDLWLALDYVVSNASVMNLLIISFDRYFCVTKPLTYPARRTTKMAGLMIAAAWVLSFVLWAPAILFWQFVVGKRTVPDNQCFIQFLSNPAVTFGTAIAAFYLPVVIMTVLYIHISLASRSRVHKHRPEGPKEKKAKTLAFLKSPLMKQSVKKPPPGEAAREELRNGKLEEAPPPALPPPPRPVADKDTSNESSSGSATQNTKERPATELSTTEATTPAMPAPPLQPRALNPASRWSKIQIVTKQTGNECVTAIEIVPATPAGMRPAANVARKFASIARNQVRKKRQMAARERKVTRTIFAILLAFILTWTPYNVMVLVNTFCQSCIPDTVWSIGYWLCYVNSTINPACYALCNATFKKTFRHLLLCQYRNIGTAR
Method: as §1

[1] = 0.001 μM, read-out: % of control specific binding
[2] = 0.01 μM, read-out: % of control specific binding
[3] = 0.1 μM, read-out: % of control specific binding
[4] = 1 μM, read-out: % of control specific binding
[5] = 10 μM, read-out: % of control specific binding
[6] = 100 μM, read-out: % of control specific binding
[7] = 3 μM, read-out: % of control specific binding

Sequence of D3 (P35462 whole entry): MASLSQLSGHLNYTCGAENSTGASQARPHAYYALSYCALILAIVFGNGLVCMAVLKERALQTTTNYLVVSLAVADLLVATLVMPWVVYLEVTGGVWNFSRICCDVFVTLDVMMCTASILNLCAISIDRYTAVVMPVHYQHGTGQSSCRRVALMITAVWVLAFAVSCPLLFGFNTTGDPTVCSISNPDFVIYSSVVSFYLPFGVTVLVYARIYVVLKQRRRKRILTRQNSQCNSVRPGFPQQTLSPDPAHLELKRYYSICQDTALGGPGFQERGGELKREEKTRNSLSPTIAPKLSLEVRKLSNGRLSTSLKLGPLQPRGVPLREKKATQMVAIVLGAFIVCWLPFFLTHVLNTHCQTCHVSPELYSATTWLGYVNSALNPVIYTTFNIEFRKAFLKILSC
Sequence of κ (KOP) (P34975 whole entry): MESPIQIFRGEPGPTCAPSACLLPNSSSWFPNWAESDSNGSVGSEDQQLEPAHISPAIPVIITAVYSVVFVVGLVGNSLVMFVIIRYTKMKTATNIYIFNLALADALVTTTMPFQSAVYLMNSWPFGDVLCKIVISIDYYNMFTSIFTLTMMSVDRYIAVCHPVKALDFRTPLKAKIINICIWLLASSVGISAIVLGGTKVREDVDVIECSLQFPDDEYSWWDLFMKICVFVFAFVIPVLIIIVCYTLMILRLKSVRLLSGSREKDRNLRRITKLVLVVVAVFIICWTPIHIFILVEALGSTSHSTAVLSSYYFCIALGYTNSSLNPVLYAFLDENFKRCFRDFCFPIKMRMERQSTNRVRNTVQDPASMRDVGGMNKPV
Sequence of dopamine transporter (Q01959 whole entry): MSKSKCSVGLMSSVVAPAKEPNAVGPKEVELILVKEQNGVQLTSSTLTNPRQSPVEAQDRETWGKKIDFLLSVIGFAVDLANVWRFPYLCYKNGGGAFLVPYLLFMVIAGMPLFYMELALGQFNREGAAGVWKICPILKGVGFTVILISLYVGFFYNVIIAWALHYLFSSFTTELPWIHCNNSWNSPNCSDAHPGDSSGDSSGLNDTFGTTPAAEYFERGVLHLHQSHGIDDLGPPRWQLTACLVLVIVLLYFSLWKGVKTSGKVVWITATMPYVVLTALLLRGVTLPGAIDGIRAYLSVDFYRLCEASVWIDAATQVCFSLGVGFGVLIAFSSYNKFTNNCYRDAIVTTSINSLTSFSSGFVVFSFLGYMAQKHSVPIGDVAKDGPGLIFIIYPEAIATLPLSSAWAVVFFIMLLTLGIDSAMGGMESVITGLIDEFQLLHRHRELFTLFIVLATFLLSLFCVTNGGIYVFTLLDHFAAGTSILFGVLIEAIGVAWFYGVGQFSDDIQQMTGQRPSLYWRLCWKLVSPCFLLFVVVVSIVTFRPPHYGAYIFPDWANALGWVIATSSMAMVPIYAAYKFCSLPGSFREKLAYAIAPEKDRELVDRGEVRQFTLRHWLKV
Sequence of 5-HT2B (P41595 whole entry): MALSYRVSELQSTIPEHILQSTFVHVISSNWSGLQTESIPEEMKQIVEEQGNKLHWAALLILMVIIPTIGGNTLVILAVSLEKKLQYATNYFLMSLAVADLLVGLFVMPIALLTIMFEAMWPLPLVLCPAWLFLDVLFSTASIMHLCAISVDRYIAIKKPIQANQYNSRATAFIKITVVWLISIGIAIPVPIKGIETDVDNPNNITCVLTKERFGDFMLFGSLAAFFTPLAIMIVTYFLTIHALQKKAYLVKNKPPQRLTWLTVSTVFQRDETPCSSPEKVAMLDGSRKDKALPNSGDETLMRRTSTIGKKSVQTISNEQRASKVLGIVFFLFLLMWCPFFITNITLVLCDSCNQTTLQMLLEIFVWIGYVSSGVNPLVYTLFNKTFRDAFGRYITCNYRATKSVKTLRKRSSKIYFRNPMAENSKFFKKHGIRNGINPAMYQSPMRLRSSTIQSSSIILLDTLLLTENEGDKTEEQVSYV

In the case of `CCC(CO)NCCOc1c(C)cccc1Cl` (stereo not shown) [Compound 4, R,S-2-((2-(2-chloro-6-methylphenoxy)ethyl)amino)butan-1-ol], the “% of control specific binding” value (5-HT1A; 100 μM) was 2.1%, the “% of control specific binding” value (κ (KOP); 100 μM) was 29.0% and the “% of control specific binding” value (5-HT2B; 100 μM) was 2.3%. For the same compound, the “% of control specific binding” value (D4.4; 100 μM) was 26.6%, the “% of control specific binding” value (D3; 100 μM) was 11.9% and the “% of control specific binding” value (M1; 100 μM) was 46.7%. The “% of control specific binding” value (dopamine transporter; 100 μM) was 29.6% and the “% of control specific binding” value (M4; 100 μM) was 30.5%.
`CCC(CO)NCCOc1c(C)cccc1Cl` (stereo not shown) [KM-408, R,S-2-((2-(2-chloro-6-methylphenoxy)ethyl)amino)butan-1-ol hydrochloride] showed a pIC50 (5-HT1A) of 5.89, a pKi (5-HT1A) of 6.10 and a remaining activity at 0.001 µM (5-HT1A; [1]) of 100%. It also gave a remaining activity at 0.01 µM (5-HT1A; [2]) of 95.9%, a remaining activity at 0.1 µM (5-HT1A; [3]) of 88.6% and a remaining activity at 1 µM (5-HT1A; [4]) of 55.6%. It also gave a remaining activity at 10 µM (5-HT1A; [5]) of 12.5%, a pIC50 (κ (KOP)) of 4.60 and a pKi (κ (KOP)) of 4.77. The remaining activity at 0.01 µM (κ (KOP); [2]) was 104%, the remaining activity at 0.1 µM (κ (KOP); [3]) was 98.3% and the remaining activity at 1 µM (κ (KOP); [4]) was 97.3%. For the same compound, the remaining activity at 10 µM (κ (KOP); [5]) was 72.1%, the remaining activity at 100 µM (κ (KOP); [6]) was 21.1% and the pIC50 (5-HT2B) was 5.62. For the same compound, the pKi (5-HT2B) was 5.92, the remaining activity at 0.001 µM (5-HT2B; [1]) was 130% and the remaining activity at 0.01 µM (5-HT2B; [2]) was 121%. It also gave a remaining activity at 0.1 µM (5-HT2B; [3]) of 103%, a remaining activity at 1 µM (5-HT2B; [4]) of 88% and a remaining activity at 10 µM (5-HT2B; [5]) of 28.3%. For the same compound, the pIC50 (D4.4) was 4.18, the pKi (D4.4) was 4.60 and the remaining activity at 0.01 µM (D4.4; [2]) was 100%. The remaining activity at 0.1 µM (D4.4; [3]) was 101%, the remaining activity at 1 µM (D4.4; [4]) was 97.6% and the remaining activity at 10 µM (D4.4; [5]) was 87.9%. It also gave a remaining activity at 100 µM (D4.4; [6]) of 39.4%, a pIC50 (D3) of 4.66 and a pKi (D3) of 5.31. For the same compound, the remaining activity at 0.003 µM (D3; 0.003 μM, read-out: % of control specific binding) was 104%, the remaining activity at 0.03 µM (D3; 0.03 μM, read-out: % of control specific binding) was 103% and the remaining activity at 0.3 µM (D3; 0.3 μM, read-out: % of control specific binding) was 102%. It also gave a remaining activity at 3 µM (D3; [7]) of 95.3%, a remaining activity at 30 µM (D3; 30 μM, read-out: % of control specific binding) of 42.5% and a pIC50 (M1) of 4.19. The pKi (M1) was 4.26, the remaining activity at 0.1 µM (M1; [3]) was 114% and the remaining activity at 1 µM (M1; [4]) was 108%. It also gave a remaining activity at 3 µM (M1; [7]) of 123%, a remaining activity at 10 µM (M1; [5]) of 99.7% and a remaining activity at 100 µM (M1; [6]) of 43.1%. It also gave a pIC50 (dopamine transporter) of 4.37, a pKi (dopamine transporter) of 4.64 and a remaining activity at 0.1 µM (dopamine transporter; [3]) of 93.9%. It also gave a remaining activity at 1 µM (dopamine transporter; [4]) of 87.8%, a remaining activity at 3 µM (dopamine transporter; [7]) of 94.4% and a remaining activity at 10 µM (dopamine transporter; [5]) of 72.6%. It also gave a remaining activity at 100 µM (dopamine transporter; [6]) of 29.6%, a pIC50 (M4) of 4.62 and a pKi (M4) of 4.82. The remaining activity at 0.1 µM (M4; [3]) was 98%, the remaining activity at 1 µM (M4; [4]) was 92% and the remaining activity at 3 µM (M4; [7]) was 82.7%. The remaining activity at 10 µM (M4; [5]) was 67% and the remaining activity at 100 µM (M4; [6]) was 23.8%.
